{"source": "the OPERA property sets (Mansouri et al. 2018)", "note": "Peptide text beside a SMILES is read from it."}
{"smiles": "CSc1cccc(-c2nc(N)nc(N)n2)c1", "logP": 2.16}
{"smiles": "CON=C(C(=O)NC1C(=O)N2C(C(=O)OCOC(=O)C(C)(C)C)=C(CSc3nnnn3C)CSC12)c1csc(N)n1", "note": "(stereo not drawn)", "logP": 1.74}
{"smiles": "COP(=O)(C=C(Cl)Cl)OC", "logP": 1.4}
{"smiles": "CCC(C(c1ccc(OC)cc1)c1ccc(OC)cc1)[N+](=O)[O-]", "note": "(stereo not drawn)", "logP": 4.45}
{"smiles": "CC[C@H](C)[C@H](NC(=O)[C@H](CC(C)C)NC(C)=O)C(N)=O", "note": "(Ac-Leu-Ile-NH2)", "logP": 0.68}
{"smiles": "OCCN1CCN(C2CC(c3ccc(F)cc3)c3ccc(C(F)(F)F)cc32)CC1", "note": "(stereo not drawn)", "logP": 4.39}
{"smiles": "CC(=O)Oc1ccccc1[N+](=O)[O-]", "logP": 1.55}
{"smiles": "O=C1CCC(=O)N1c1ccc(Br)cc1", "logP": 1.18}
{"smiles": "Nc1cc(C(F)(F)F)cc(C(F)(F)F)c1", "logP": 3.57}
{"smiles": "CC1OC(OC2C(O)CC(OC3C(O)CC(OC4CCC5(C)C(CCC6C5CCC5(C)C(C7COC(=O)C7)CCC65O)C4)OC3C)OC2C)CC(O)C1O", "note": "(stereo not drawn)", "logP": 2.9}
{"smiles": "CC(=O)c1ccc(OCC(=O)O)cc1", "logP": 0.87}
{"smiles": "CN(C)C(=O)c1ccccc1O", "logP": 0.44}
{"smiles": "CC1CCC(O)CC1", "note": "(stereo not drawn)", "logP": 1.79}
{"smiles": "CCN(CC)CCNC(=O)c1cc(I)c(N)cc1OC", "logP": 3.09}
{"smiles": "COC(=O)COc1ccccc1", "logP": 1.41}
{"smiles": "CCC1(C2=CC3CCC(C2)C3)C(=O)NC(=O)NC1=O", "note": "(stereo not drawn)", "logP": 2.53}
{"smiles": "O=[N+]([O-])c1cccs1", "logP": 1.55}
{"smiles": "CC(=O)OCC1=C(C(=O)O)N2C(=O)[C@@H](NC(=O)Cc3cccs3)[C@H]2SC1", "logP": -0.41}
{"smiles": "OCC(O)c1ccc(O)c(O)c1", "note": "(stereo not drawn)", "logP": -1.01}
{"smiles": "COc1ccc(NC(C)=O)cc1", "logP": 1.03}
{"smiles": "FC(F)(F)c1nc2c(Cl)c(Cl)ccc2[nH]1", "logP": 3.49}
{"smiles": "CCNC(=O)c1ccco1", "logP": 0.61}
{"smiles": "CC(C)=CC1C(C(=O)OCc2ccccc2)C1(C)C", "note": "(stereo not drawn)", "logP": 5.49}
{"smiles": "O=[As](O)(O)c1ccccc1", "logP": 0.06}
{"smiles": "Nc1nnco1", "logP": -1.44}
{"smiles": "O=c1ccc(=O)[nH][nH]1", "logP": -0.84}
{"smiles": "CCCCCn1cnc2c(NC(C)=O)ncnc21", "logP": 0.98}
{"smiles": "O=C(O)c1ccc(C(F)(F)F)cc1", "logP": 3.1}
{"smiles": "O=C(O)CONC(=O)c1ccccc1", "logP": -0.27}
{"smiles": "CC(N)(Cc1ccc(O)cc1)C(=O)O", "note": "(stereo not drawn)", "logP": -1.89}
{"smiles": "CCN(CC)CCNC(=O)c1cc(S(=O)(=O)CC)c(N)cc1OC", "logP": 1.7}
{"smiles": "O=C(O)CCCCCN1C(=O)C=CC1=O", "logP": 1.15}
{"smiles": "C1CNCCN1", "logP": -1.5}
{"smiles": "COc1ccccc1OC(=O)c1ccc(N)cc1O", "logP": 2.88}
{"smiles": "NC(=O)c1[nH]cnc1N", "logP": -1.1}
{"smiles": "CNC(=O)Oc1ccc([N+](=O)[O-])cc1", "logP": 1.47}
{"smiles": "N#Cc1c[nH]c(=O)[nH]c1=O", "logP": -0.93}
{"smiles": "CCCCCCOC1OC(CO)C(O)C(O)C1O", "note": "(stereo not drawn)", "logP": 0.16}
{"smiles": "CCCCCCOC(=O)c1cc(O)c(O)c(O)c1", "logP": 3.17}
{"smiles": "O=C(C=CC(=O)c1ccccc1)c1ccccc1", "logP": 3.16}
{"smiles": "N#Cc1ccc2ccccc2n1", "logP": 1.6}
{"smiles": "O=C1CCCCN1", "logP": -0.46}
{"smiles": "ClC(Cl)C(Cl)Cl", "logP": 2.39}
{"smiles": "NC(N)=Nc1ccccc1", "logP": 0.53}
{"smiles": "O=C(CCn1cnc([N+](=O)[O-])n1)N1CCOCC1", "logP": -0.74}
{"smiles": "CC(=O)N[C@@H](Cc1ccc(O)cc1)C(=O)N[C@@H](CC(C)C)C(N)=O", "note": "(Ac-Tyr-Leu-NH2)", "logP": 0.32}
{"smiles": "COc1ccccc1C(=O)c1ccncc1", "logP": 1.86}
{"smiles": "C=C(F)F", "logP": 1.24}
{"smiles": "C1=c2ccc3cccc4ccc(c2c43)CC1", "logP": 4.92}
{"smiles": "COC(=O)C(F)(F)F", "logP": 0.6}
{"smiles": "CC(C)N(C)/N=N/c1ccc(C(N)=O)cc1", "logP": 2.02}
{"smiles": "COc1cccc(C=O)c1O", "logP": 1.37}
{"smiles": "Cc1ccc(N=C=S)cc1", "logP": 3.92}
{"smiles": "O=S(=O)(c1ccccc1)c1cccc2cccnc12", "logP": 2.33}
{"smiles": "CN1C(=O)CCC1=O", "logP": -0.95}
{"smiles": "CCCc1ccccc1O", "logP": 2.93}
{"smiles": "C#CCC(O)c1cccnc1", "note": "(stereo not drawn)", "logP": 1.21}
{"smiles": "O=C(COc1ccccc1)Nc1ccccc1", "logP": 2.73}
{"smiles": "O=C(O)c1ccccc1O", "logP": 2.26}
{"smiles": "C/C(=N/Nc1nc(C)cc(C)n1)c1ccccc1C", "logP": 2.98}
{"smiles": "O=C1CCCCC1", "logP": 0.81}
{"smiles": "C=COCC", "logP": 1.04}
{"smiles": "Cc1[nH]ccc(=O)c1O", "logP": -0.49}
{"smiles": "CCN1CC(C(O)C(CC2CCCCC2)NC(=O)C(Cc2c[nH]cn2)NC(=O)C(CC(=O)N2CC(OCOCCOC)C(OCOCCOC)C2)Cc2ccccc2)OC1=O", "note": "(stereo not drawn)", "logP": 1.87}
{"smiles": "Nc1ccccc1Oc1ccccc1", "logP": 2.46}
{"smiles": "CC(C)C(=O)CC(=O)C(C)C", "logP": 2.22}
{"smiles": "O=[N+]([O-])c1cc(Cl)ccc1Cl", "logP": 3.09}
{"smiles": "COc1ccccc1OC", "logP": 1.6}
{"smiles": "O=CNc1ccc([N+](=O)[O-])cc1", "logP": 1.43}
{"smiles": "CC1N=C(c2ccccc2)c2cc(Cl)ccc2NC1=O", "note": "(stereo not drawn)", "logP": 3.33}
{"smiles": "O=C1CCCCO1", "logP": -0.35}
{"smiles": "CC1CC2OC(=O)C(C)C2C(OC(=O)CC(=O)OC2C3C(CC(C)C4CCC(=O)C42C)OC(=O)C3C)C2(C)C(=O)CCC12", "note": "(stereo not drawn)", "logP": 0.76}
{"smiles": "CCCN(N=O)C(N)=O", "logP": 0.3}
{"smiles": "CC(C)(C)C(=O)C(C)(C)C", "logP": 3}
{"smiles": "CCn1nnc(Oc2ccc(NC(=O)N(C)C)cc2Cl)n1", "logP": 1.7}
{"smiles": "CC1C(c2ccccc2)OCCN1N=O", "note": "(stereo not drawn)", "logP": 2.09}
{"smiles": "CCCS(=O)(=O)CCC", "logP": 0.39}
{"smiles": "NS(=O)(=O)c1ccccc1", "logP": 0.31}
{"smiles": "CCOc1ccccc1OCC", "logP": 2.42}
{"smiles": "O=C1c2ccccc2C(=O)N1c1ccccc1", "logP": 2.4}
{"smiles": "Clc1ccc(Cl)c(Cl)c1", "logP": 4.02}
{"smiles": "CCNC(=O)Nc1ccccc1", "logP": 1.64}
{"smiles": "COc1ccc(C(c2ccc(OC)cc2)C(C)[N+](=O)[O-])cc1", "note": "(stereo not drawn)", "logP": 3.87}
